Measured values published in patent US20020137929A1, “1 - (3-heterocyclylphenyl) isothiourea, -isourea, -guanidine and -amidine herbicidal agents” (Intellectual Property Department, BASF Aktiengesellschaft, priority 1998, published 2002).

What was measured:
[1] = test system: ORYSAT (Rice, Tebonnet); assay: Postemergence herbicidal evaluation; type: in vivo, Oryza sativa, (L.) Tebonnet; settings: postemergence
Outline: (§1)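 Two-week seedlings sprayed postemergence at 40 psi; formulation: 1:1 acetone/water, 0.5% TWEEN 20; application ≈0.0156–0.500 kg/ha. Greenhouse grow-out, then 0–9 visual scoring at 4–5 weeks.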

[2] = test system: GLXMAW (Soybean, Williams); assay: Preemergence herbicidal evaluation; type: in vivo, Glycine max, (L.) Merr. cv Williams; settings: rated 4-5 weeks after treatment
Outline: (§2)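 Greenhouse preemergence test: seed-soil mix sown on ~1 inch soil; aqueous acetone spray at equivalent of ~0.0156–0.500 kg/ha; greenhouse-held and watered; scored 0–9 visually at 4–5 weeks.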

[3] = test system: ORYSAT (Rice, Tebonnet); assay: Preemergence herbicidal evaluation; type: in vivo, Oryza sativa, (L.) Tebonnet; settings: rated 4-5 weeks after treatment
Outline: as §2

[4] = test system: SAGPY (Arrowhead (Pygmaea)); assay: Preemergence weed control under flooded paddy conditions; type: in vivo, Sagittaria pygmaea; settings: rated 3-4 weeks after treatment
Outline: (§3)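 Values are visual 0-9 scores against a control for a preemergence application into paddy flood water at about 0.0313 to 0.500 kg/ha. Greenhouse duration was three to four weeks.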

[5] = test system: CASOB (Sicklepod); assay: Preemergence herbicidal evaluation; type: in vivo, Cassia obtusifolia; settings: rated 4-5 weeks after treatment
Outline: as §2

[6] = test system: AMBEL (Ragweed, Common); assay: Postemergence herbicidal evaluation; type: in vivo, Ambrosia artemisifolia; settings: postemergence
Outline: as §1

[7] = test system: GALAP (Galium); assay: Postemergence herbicidal evaluation; type: in vivo, Galium aparine; settings: postemergence
Outline: as §1

[8] = test system: ABUTH (Velvetleaf); assay: Preemergence herbicidal evaluation; type: in vivo, Abutilon theophrasti; settings: rated 4-5 weeks after treatment
Outline: as §2

[9] = test system: IPOHE (Morningglory, Ivyleaf); assay: Postemergence herbicidal evaluation; type: in vivo, Ipomoea hederacea; settings: postemergence
Outline: as §1

[10] = test system: TRZAWR (Wheat, Winter, cv Riband); assay: Preemergence herbicidal evaluation; type: in vivo, Triticum aestivum; settings: rated 4-5 weeks after treatment
Outline: as §2

[11] = test system: ECHCG (Barnyardgrass); assay: Postemergence herbicidal evaluation; type: in vivo, Echinochloa crus-galli; settings: postemergence
Outline: as §1

[12] = test system: GLXMAW (Soybean, Williams); assay: Postemergence herbicidal evaluation; type: in vivo, Glycine max, (L.) Merr. cv Williams; settings: postemergence
Outline: as §1

[13] = test system: SETVI (Foxtail, Green); assay: Postemergence herbicidal evaluation; type: in vivo, Setaria viridis; settings: postemergence
Outline: as §1

[14] = test system: ABUTH (Velvetleaf); assay: Postemergence herbicidal evaluation; type: in vivo, Abutilon theophrasti; settings: postemergence
Outline: as §1

[15] = test system: CYPIR (Rice Flatsedge); assay: Preemergence weed control under flooded paddy conditions; type: in vivo, Cyperus iria; settings: rated 3-4 weeks after treatment
Outline: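 Seeds or propagules sown in top 0.5 cm of silt loam soil, flooded 1.5 to 3 cm above surface throughout. Compound in 50/50 v/v aqueous/acetone pipetted into flood water at about 0.0313 to 0.500 kg/ha. Visual 0-9 rating versus control after three to four weeks in greenhouse.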

[16] = test system: MOOVA (Monochoria); assay: as above; type: in vivo, Monochoria vaginalis; settings: rated 3-4 weeks after treatment
Outline: as §3

[17] = test system: CHEAL (Lambsquarters, Common); assay: Postemergence herbicidal evaluation; type: in vivo, Chenopodium album; settings: postemergence
Outline: as §1

CCOC(=O)CN1C(=O)C(Cc2ccccc2OCC(=O)O)S/C1=N/c1cc(-n2c(=O)cc(C(F)(F)F)n(C)c2=O)c(F)cc1Cl (stereo not drawn) [Compound 113, 5-[o-(Carboxymethoxy)benzyl]-2-{{2-chloro-5-[3,6-dihydro-3-methyl-2,6-dioxo-4-(trifluoromethyl)-1(2H)-pyrimidinyl]-4-fluorophenyl}imino}-4-oxo-3-thiazolidineacetic acid, 3-ethyl ester]
Herbicidal rating ORYSAT ([1]; rate 0.0158 kg/ha): 2.0 | Herbicidal rating ORYSAT ([1]; rate 0.0315 kg/ha): 2.0 | Herbicidal rating ORYSAT ([1]; rate 0.0630 kg/ha): 2.5 | Preemergence herbicidal rating GLXMAW ([2]; rate 0.0156 kg/ha): 0.0 | Preemergence herbicidal rating GLXMAW ([2]; rate 0.0313 kg/ha): 1.0 | Preemergence herbicidal rating GLXMAW ([2]; rate 0.0625 kg/ha): 0.0 | Preemergence herbicidal rating GLXMAW ([2]; rate 0.1250 kg/ha): 0.0 | Preemergence herbicidal rating GLXMAW ([2]; rate 0.2500 kg/ha): 2.0 | Preemergence herbicidal rating ORYSAT ([3]; rate 0.0156 kg/ha): 0.0 | Preemergence herbicidal rating ORYSAT ([3]; rate 0.0313 kg/ha): 0.0 | Preemergence herbicidal rating ORYSAT ([3]; rate 0.0625 kg/ha): 0.0 | Preemergence herbicidal rating ORYSAT ([3]; rate 0.1250 kg/ha): 0.0 | Preemergence herbicidal rating ORYSAT ([3]; rate 0.2500 kg/ha): 0.0 | SAGPY herbicidal effect rating ([4]; 0.0313 kg/ha): 4.0 | SAGPY herbicidal effect rating ([4]; 0.0625 kg/ha): 6.0 | SAGPY herbicidal effect rating ([4]; 0.1250 kg/ha): 9.0 | SAGPY herbicidal effect rating ([4]; 0.2500 kg/ha): 9.0 | Preemergence herbicidal rating CASOB ([5]; rate 0.0156 kg/ha): 0.0 | Preemergence herbicidal rating CASOB ([5]; rate 0.0313 kg/ha): 0.0 | Preemergence herbicidal rating CASOB ([5]; rate 0.0625 kg/ha): 0.0 | Preemergence herbicidal rating CASOB ([5]; rate 0.1250 kg/ha): 0.0 | Preemergence herbicidal rating CASOB ([5]; rate 0.2500 kg/ha): 0.0 | Herbicidal rating AMBEL ([6]; rate 0.0158 kg/ha): 5.0 | Herbicidal rating AMBEL ([6]; rate 0.0315 kg/ha): 9.0 | Herbicidal rating AMBEL ([6]; rate 0.0630 kg/ha): 9.0 | Herbicidal rating GALAP ([7]; rate 0.0158 kg/ha): 1.0 | Herbicidal rating GALAP ([7]; rate 0.0315 kg/ha): 0.0 | Herbicidal rating GALAP ([7]; rate 0.0630 kg/ha): 2.0 | Preemergence herbicidal rating ABUTH ([8]; rate 0.0156 kg/ha): 0.0 | Preemergence herbicidal rating ABUTH ([8]; rate 0.0313 kg/ha): 1.0 | Preemergence herbicidal rating ABUTH ([8]; rate 0.0625 kg/ha): 1.0 | Preemergence herbicidal rating ABUTH ([8]; rate 0.1250 kg/ha): 9.0 | Preemergence herbicidal rating ABUTH ([8]; rate 0.2500 kg/ha): 9.0 | Herbicidal rating IPOHE ([9]; rate 0.0158 kg/ha): 7.0 | Herbicidal rating IPOHE ([9]; rate 0.0315 kg/ha): 9.0 | Herbicidal rating IPOHE ([9]; rate 0.0630 kg/ha): 9.0 | Preemergence herbicidal rating TRZAWR ([10]; rate 0.0156 kg/ha): 0.0 | Preemergence herbicidal rating TRZAWR ([10]; rate 0.0313 kg/ha): 0.0 | Preemergence herbicidal rating TRZAWR ([10]; rate 0.0625 kg/ha): 0.0 | Preemergence herbicidal rating TRZAWR ([10]; rate 0.1250 kg/ha): 0.0 | Preemergence herbicidal rating TRZAWR ([10]; rate 0.2500 kg/ha): 0.0 | Herbicidal rating ECHCG ([11]; rate 0.0158 kg/ha): 0.0 | Herbicidal rating ECHCG ([11]; rate 0.0315 kg/ha): 1.0 | Herbicidal rating ECHCG ([11]; rate 0.0630 kg/ha): 1.0 | Herbicidal rating GLXMAW ([12]; rate 0.0158 kg/ha): 4.5 | Herbicidal rating GLXMAW ([12]; rate 0.0315 kg/ha): 5.5 | Herbicidal rating GLXMAW ([12]; rate 0.0630 kg/ha): 5.5 | Herbicidal rating SETVI ([13]; rate 0.0158 kg/ha): 3.0 | Herbicidal rating SETVI ([13]; rate 0.0630 kg/ha): 3.0 | Herbicidal rating ABUTH ([14]; rate 0.0158 kg/ha): 9.0 | Herbicidal rating ABUTH ([14]; rate 0.0315 kg/ha): 9.0 | Herbicidal rating ABUTH ([14]; rate 0.0630 kg/ha): 9.0 | CYPIR herbicidal effect rating ([15]; 0.0313 kg/ha): 3.0 | CYPIR herbicidal effect rating ([15]; 0.0625 kg/ha): 5.0 | CYPIR herbicidal effect rating ([15]; 0.1250 kg/ha): 5.0 | CYPIR herbicidal effect rating ([15]; 0.2500 kg/ha): 6.0 | MOOVA herbicidal effect rating ([16]; 0.0313 kg/ha): 9.0 | MOOVA herbicidal effect rating ([16]; 0.0625 kg/ha): 9.0 | MOOVA herbicidal effect rating ([16]; 0.1250 kg/ha): 9.0 | MOOVA herbicidal effect rating ([16]; 0.2500 kg/ha): 9.0 | Herbicidal rating CHEAL ([17]; rate 0.0158 kg/ha): 5.0 | Herbicidal rating CHEAL ([17]; rate 0.0315 kg/ha): 4.0 | Herbicidal rating CHEAL ([17]; rate 0.0630 kg/ha): 7.0
